Here are results for 7 compounds from paper PMC6630699, “Synthesis and Cytotoxicity Evaluation of DOTA-Conjugates of Ursolic Acid” (Molecules, 2019).

Data set [1] relates to MCF-7 (breast adenocarcinoma). As to the kind of experiment: SRB cytotoxicity assay, MCF-7. Type of data set: cell-based, human. Particulars: for EC50: Homo sapiens, MCF7, SRB assay, 72 h of treatment; for Selectivity index SI MCF-7: SI = EC50 (NIH 3T3)/EC50 (MCF-7). The text has this: (§1) Due to cytotoxicity evaluation, the prepared UA-DOTA conjugates were screened in rhodamine B assays employing a series of human tumor cell lines and non-malignant mouse fibroblasts (NIH 3T3).
(§2) The cell lines used are human cancer cell lines: A2780 (ovarian carcinoma), HT29 (colon adenocarcinoma), MCF-7 (breast adenocarcinoma), A375 (melanoma), FaDu (pharynx squamous cell carcinoma) and non-malignant mouse fibroblasts NIH 3T3; all cell lines were obtained from the Department of Oncology (Martin-Luther-University Halle-Wittenberg). Cultures were maintained as monolayers in RPMI 1640 medium with L-glutamine (Capricorn Scientific GmbH, Ebsdorfergrund, Germany) supplemented with 10% heat inactivated fetal bovine serum (Sigma-Aldrich Chemie GmbH, Steinheim, Germany) and penicillin/streptomycin (Capricorn Scientific GmbH, Ebsdorfergrund, Germany) at 37 °C in a humidified atmosphere with 5% CO2.
(§3) The cytotoxicity of the compounds was evaluated using the sulforhodamine-B (Kiton-Red S, ABCR) micro culture colorimetric assay. Cells were seeded into 96-well plates on day 0 at appropriate cell densities to prevent confluence of the cells during the period of experiment. After 24 h, the cells were treated with six different concentrations (1, 3, 7, 12, 20, and 30 µM) minimum. The final concentration of DMSO/DMF never exceeded 0.5%, which was non-toxic to the cells. After a 72-h treatment, the supernatant medium from the 96-well plates was discarded, the cells were fixed with 10% trichloroacetic acid (TCA) and allowed to rest at 4 °C. After 24 h fixation, the cells were washed in a strip washer and dyed with SRB solution (100 µL, 0.4%, in 1% acetic acid) for about 20 min. After dying, the plates were washed four times with 1% acetic acid to remove the excess of the dye and allowed to air-dry overnight. Tris base solution (200 µL, 10 mM) was added to each well and absorbance was measured at λ = 570 nm using a 96 well plate reader (Tecan Spectra, Crailsheim, Germany). The EC50 values were averaged from three independent experiments performed each in triplicate calculated from semi logarithmic dose response curves applying a non-linear 4P Hills-slope equation (GraphPad Prism5; variables top and bottom were set to 100 and 0, respectively).
A general note: The SRB assay estimates cell density from bound dye.

Data set [2] deals with non-malignant mouse fibroblasts NIH 3T3. As to the kind of experiment: SRB cytotoxicity assay, NIH 3T3. The data set is classed as cell-based. The following applies: NIH3T3, 72 h of treatment.
Description: as §1, §2, §3

Data set [3] deals with A2780 (ovarian carcinoma). Description: SRB cytotoxicity assay, A2780. The data set is classed as cell-based, human. Particulars: for EC50: Homo sapiens, A2780, 72 h, SRB assay, 72 h of treatment; for Selectivity index SI A2780: SI = EC50 (NIH 3T3)/EC50 (A2780).
Description: as §1, §2, §3

In data set [4] the test system is HT29 (colon adenocarcinoma). Description: SRB cytotoxicity assay, HT29. The data set is classed as cell-based, human. The following applies: for EC50: Homo sapiens, HT-29, SRB assay, 72 h of treatment; for Selectivity index SI HT29: SI = EC50 (NIH 3T3)/EC50 (HT29).
Description: as §1, §2, §3

In a further data set the test system is human tumor cell lines. Description: SRB cytotoxicity assay, statements over the whole cell line panel. The data set is classed as cell-based. Particulars: summary over all tumor cell lines.
Description: as §1, §2, §3

The subject of a further data set is A375 (melanoma). As to the kind of experiment: SRB cytotoxicity assay, A375. Type of data set: cell-based, human. The following applies: for EC50: Homo sapiens, A-375, SRB assay, 72 h of treatment; for Selectivity index SI A375: SI = EC50 (NIH 3T3)/EC50 (A375).
Description: as §1, §2, §3

For data set [5], the system named is FaDu (pharynx squamous cell carcinoma). Description: SRB cytotoxicity assay, FaDu. The data set is classed as cell-based, human. The following applies: for EC50: Homo sapiens, FaDu, SRB assay, 72 h of treatment; for Selectivity index SI FaDu: SI = EC50 (NIH 3T3)/EC50 (FaDu).
Description: as §1, §2, §3

SMILES strings stand for the structures. Structures can show the parent of a compound that is named as a salt. Bounds are passed on as bounds.

What is called EC50 is the concentration at which the effect is half-maximal. In the case of `C[C@H]1[C@H](C)CC[C@]2(C(=O)O)CC[C@]3(C)C(=CC[C@@H]4[C@@]5(C)CC[C@H](O)C(C)(C)[C@@H]5CC[C@]43C)[C@H]12` [UA, Ursolic acid], the EC50 in data set [1] was 12.7 ± 0.1 µM; in data set [2], 13.1 ± 1.1 µM; in data set [3], 11.7 ± 0.6 µM; in data set [4], 10.6 ± 0.7 µM. Further, the “Selectivity index SI MCF-7” value in data set [1] turned out to be 1.03. Besides, the “Selectivity index SI A2780” value in data set [3] came out at 1.12. Further, in data set [4], the “Selectivity index SI HT29” value is given as 1.24.
On to `O=C(CN1CCNCCN(CC(=O)OCc2ccccc2)CCN(CC(=O)OCc2ccccc2)CC1)OCc1ccccc1` [compound 7, Tribenzyl 2,2’,2’’-(1,4,7,10-tetraazacyclododecane-1,4,7-triyl)triacetate], for which the concentration for a half-maximal effect (EC50) in the data set on human tumor cell lines is under 5 µM; in data set [1] it was 4.1 ± 0.5 µM; in the data set on A375 (melanoma) it was 4.7 ± 0.3 µM; in data set [2], 4.5 ± 0.3 µM; in data set [3], 3.8 ± 0.3 µM; in data set [4], 2 ± 0.2 µM. This compound yielded a 50% effective concentration (EC50) in data set [5] of 3.9 ± 0.7 µM. In data set [1], the “Selectivity index SI MCF-7” value came to 1.10. The “Selectivity index SI A375” value in the data set on A375 (melanoma) was determined as 0.96. In addition, in data set [3], the “Selectivity index SI A2780” value is reported as 1.18. Besides, the “Selectivity index SI HT29” value in data set [4] was determined as 2.25. Moreover, the “Selectivity index SI FaDu” value in data set [5] is listed as 1.15.
One may read the melting point as the temperature, or range, at which the solid turns liquid. Regarding `CC(=O)O[C@H]1CC[C@]2(C)[C@H]3CC=C4[C@@H]5[C@@H](C)[C@H](C)CC[C@]5(C(=O)NCCN5CCN(C(=O)CN6CCN(CC(=O)OCc7ccccc7)CCN(CC(=O)OCc7ccccc7)CCN(CC(=O)OCc7ccccc7)CC6)CC5)CC[C@@]4(C)[C@]3(C)CC[C@H]2C1(C)C` [compound 13, Tribenzyl 2,2’,2’’-[10-[2-[4-[2-(3β-acetyloxy-urs-12-en-28-oylamino)ethyl]piperazin-1-yl]-2-oxoethyl]-1,4,7,10-tetraazacyclododecane-1,4,7-triyl]triacetate], the melting point fell in the range of 142 to 146 °C. Also, the concentration giving a half-maximal response (EC50) in the data set with human tumor cell lines was under 6 µM. Besides, in data set [1], a half-maximal effect (EC50) was put at 3.3 ± 0.2 µM and the “Selectivity index SI MCF-7” value is 1.09. The concentration giving a half-maximal response (EC50) in data set [2] stood at 3.6 ± 0.5 µM. Moreover, in data set [3], the EC50 was 2.1 ± 0.4 µM and the “Selectivity index SI A2780” value is listed as 1.71. Further, in data set [4], the 50% effective concentration (EC50) stood at 4 ± 0.4 µM and the “Selectivity index SI HT29” value was found to be 0.90. In addition, in data set [5], the response was half-maximal at 6 ± 0.1 µM (EC50) and the “Selectivity index SI FaDu” value was 0.60.
Regarding `COc1cccc2c1C(=O)c1c(O)c3c(c(O)c1C2=O)C[C@@](O)(C(=O)CO)C[C@@H]3O[C@H]1C[C@H](N)[C@H](O)[C@H](C)O1` [DRC, doxorubicin hydrochloride, reference compound], the EC50 in data set [1] amounted to 1.1 ± 0.3 µM; in data set [2], 0.06 ± 0.03 µM; in data set [3], 0.01 ± 0.01 µM; in data set [4] it was 0.9 ± 0.2 µM. Moreover, the “Selectivity index SI MCF-7” value in data set [1] amounted to 0.05. In addition, the “Selectivity index SI A2780” value in data set [3] amounted to 6.00. Also, in data set [4], the “Selectivity index SI HT29” value stood at 0.07.
On to `CC(=O)O[C@H]1CC[C@]2(C)[C@H]3CC=C4[C@@H]5[C@@H](C)[C@H](C)CC[C@]5(C(=O)NCCN5CCN(C(=O)CN6CCN(CC(=O)O)CCN(CC(=O)O)CCN(CC(=O)O)CC6)CC5)CC[C@@]4(C)[C@]3(C)CC[C@H]2C1(C)C` [compound 15, 2,2’,2’’-[10-[2-[4-[2-(3β-Acetyloxy-urs-12-en-28-oylamino)ethyl]piperazin-1-yl]-2-oxoethyl]-1,4,7,10-tetraazacyclododecane-1,4,7-triyl]triacetic acid], for which the melting point was 206 to 210 °C (dec.). In addition, in the data set on human tumor cell lines, the EC50 was over 60 µM. For the same compound, in data set [1], the EC50 is over 60 µM. Moreover, the EC50 with A375 (melanoma) was over 60 µM. This compound also registered an EC50 in data set [2] of over 60 µM. The compound further displayed an EC50 in data set [3] of over 60 µM. For the same compound, in data set [4], the EC50 was over 60 µM. In addition, in data set [5], the EC50 was over 60 µM.
The compound `CC(C)(C)OC(=O)CN1CCNCCN(CC(=O)OC(C)(C)C)CCN(CC(=O)OC(C)(C)C)CC1` [compound 6, Tri-tert-butyl 2,2′,2’’-(1,4,7,10-tetraazacyclododecane-1,4,7-triyl)triacetate] yielded a melting point of 180 to 182 °C. In the data set on human tumor cell lines, this compound yielded a 50% effective concentration (EC50) of 10 to 14 µM. In data set [1], the EC50 worked out at 11.3 ± 2.3 µM and the “Selectivity index SI MCF-7” value is listed as 1.53. Also, in the data set with A375 (melanoma), the half-maximal effective concentration (EC50) worked out at 12.4 ± 2.7 µM and the “Selectivity index SI A375” value turned out to be 1.40. The same compound displayed an EC50 in data set [2] of 17.3 ± 0.1 µM. Also, in data set [3], the half-maximal effective concentration (EC50) was 10.5 ± 3 µM and the “Selectivity index SI A2780” value is listed as 1.65. For the same compound, in data set [4], the midpoint of the response, the EC50, lay at 8.7 ± 2.7 µM and the “Selectivity index SI HT29” value is listed as 1.99. For the same compound, in data set [5], the midpoint of the response, the EC50, lay at 9.5 ± 0.9 µM and the “Selectivity index SI FaDu” value is listed as 1.82.
Turning to `C[C@H]1[C@H](C)CC[C@]2(C(=O)NCCNC(=O)CN3CCN(CC(=O)OC(C)(C)C)CCN(CC(=O)OC(C)(C)C)CCN(CC(=O)OC(C)(C)C)CC3)CC[C@]3(C)C(=CC[C@@H]4[C@@]5(C)CC[C@H](O)C(C)(C)[C@@H]5CC[C@]43C)[C@H]12` [compound 29, Tri-tert-butyl 2,2’,2’’-[10-[2-[2-(3β-hydroxy-urs-12-en-28-oylamino)ethyl]amino-2-oxoethyl]-1,4,7,10-tetraazacyclododecane-1,4,7-triyl]triacetate], in the data set on A375 (melanoma), a half-maximal effect (EC50) was put at 2 ± 0.3 µM and the “Selectivity index SI A375” value came out at 1.15. This compound yielded an EC50 in data set [2] of 2.3 ± 0.7 µM. Moreover, in data set [3], the concentration for a half-maximal effect (EC50) was determined as 1.6 ± 0.5 µM and the “Selectivity index SI A2780” value is listed as 1.44. For the same compound, in data set [4], the response was half-maximal at 1.7 ± 0.4 µM (EC50) and the “Selectivity index SI HT29” value was 1.35. In data set [5], the midpoint of the response, the EC50, lay at 2.9 ± 0.4 µM and the “Selectivity index SI FaDu” value turned out to be 0.79.
